Data on 1 compound can be found in ChEMBL document CHEMBL5346971, “Discovery of the First Irreversible HDAC6 Isoform Selective Inhibitor with Potent Anti-Multiple Myeloma Activity” (J Med Chem, 2023).

Calls of active or inactive are those of the source. The rule behind the calls is not given here.

Series [1] concerns RPMI-8226. The series can be described thus: Antitumor activity against human RPMI-8226 cells xenografted in NCG mouse assessed as tumor growth inhibition at 10 ug administered intratumorally every 2 days by vernier caliper analysis. Format: functional. The conditions noted are these: dose 10 µg; route it(Intratumoral).
A further series deals with MM1.S. The series can be described thus: Antiproliferative activity against human MM1.S cells assessed as inhibition of cell proliferation incubated for 48 hrs by CCK8 assay. Format: functional, cell-based. (Tetrazolium dyes change colour on reduction, which living cells bring about.)
Series [2] has as its target Class 1 histone deacetylase (Homo sapiens) (UniProt Q13547+O15379+Q92769+Q9BY41). The series can be described thus: Irreversible inhibition of class 1 HDAC in human A549 cells assessed as acetyl histone H4 level at 0.4 uM incubated for 5 hrs followed by drug wash-out for 1 hr by western blot analysis relative to control. The format is cell-based. (In general: A western blot detects proteins with antibodies after separation by electrophoresis.)

Series [3] deals with RPMI-8226. The experiment in a line: Induction of apoptosis in human RPMI-8226 cells assessed as proportion of early apoptotic cells at 0.5 uM incubated for 24 hrs by AnnexinV-FITC/PI staining based flow cytometry (reference value: 10.63%). The format is functional, cell-based. For orientation: In flow cytometry, cells or beads pass a laser one at a time.
Series [4] deals with RPMI-8226. The experiment in a line: Induction of apoptosis in human RPMI-8226 cells assessed as proportion of necrotic cells at 0.5 uM incubated for 24 hrs by AnnexinV-FITC/PI staining based flow cytometry (reference value: 0.49%). The format is functional, cell-based.
The test system of series [5] is RPMI-8226. The experiment in a line: Induction of cell cycle arrest in human RPMI-8226 cells assessed as proportion of cells at G1 phase at 0.1 uM incubated for 24 hrs by PI staining based flow cytometry (reference value: 33.5%). The format is functional.
Series [6] concerns RPMI-8226. The experiment in a line: Induction of apoptosis in human RPMI-8226 cells assessed as proportion of late apoptotic cells at 0.1 uM incubated for 24 hrs by AnnexinV-FITC/PI staining based flow cytometry (reference value: 4.18%). The format is functional, cell-based.
A short description of series [7]: Toxicity in NCG mouse xenografted with human RPMI-8226 cells assessed as body weight loss at 10 ug administered intratumorally every 2 days. The conditions noted are these: in vivo, other, 48 h, route it(Intratumoral), dose 10 µg.
The target in a further series is T1, Histone deacetylase 11 (Homo sapiens, UniProt Q96DB2).
T1 sequence (Q96DB2 whole entry): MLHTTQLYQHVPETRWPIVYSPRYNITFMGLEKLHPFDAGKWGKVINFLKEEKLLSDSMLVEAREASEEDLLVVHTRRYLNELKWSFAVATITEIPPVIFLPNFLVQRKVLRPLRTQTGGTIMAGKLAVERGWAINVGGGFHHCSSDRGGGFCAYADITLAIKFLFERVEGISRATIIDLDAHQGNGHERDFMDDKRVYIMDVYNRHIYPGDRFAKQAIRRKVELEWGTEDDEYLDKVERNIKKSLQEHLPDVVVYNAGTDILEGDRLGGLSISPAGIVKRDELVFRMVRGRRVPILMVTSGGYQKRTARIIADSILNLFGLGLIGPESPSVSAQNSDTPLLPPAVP
The experiment in a line: Inhibition of human full length recombinant HDAC11 (1 to 347 residues) expressed in Sf9 cells using acetyl-ETDKmyr-AMC as substrate preincubated with enzyme for 1 hr followed by substrate addition and measured after 30 mins by fluorescence based analysis.

Series [8] concerns RPMI-8226. The series can be described thus: Induction of apoptosis in human RPMI-8226 cells assessed as proportion of early apoptotic cells at 0.1 uM incubated for 24 hrs by AnnexinV-FITC/PI staining based flow cytometry (reference value: 10.63%). The format is functional, cell-based.
The target in another series is Histone deacetylase 2 (Homo sapiens, UniProt Q92769). The experiment in a line: Inhibition of C-terminal FLAG-tagged human full length recombinant HDAC2 (1 to 488 residues) expressed in Sf9 cells using Boc-Lys(acetyI)-AMC as substrate preincubated with enzyme for 1 hr followed by substrate addition and measured after 30 mins by fluorescence based analysis.
Histone deacetylase 2, sequence (Q92769 whole entry, the tested form may be a part): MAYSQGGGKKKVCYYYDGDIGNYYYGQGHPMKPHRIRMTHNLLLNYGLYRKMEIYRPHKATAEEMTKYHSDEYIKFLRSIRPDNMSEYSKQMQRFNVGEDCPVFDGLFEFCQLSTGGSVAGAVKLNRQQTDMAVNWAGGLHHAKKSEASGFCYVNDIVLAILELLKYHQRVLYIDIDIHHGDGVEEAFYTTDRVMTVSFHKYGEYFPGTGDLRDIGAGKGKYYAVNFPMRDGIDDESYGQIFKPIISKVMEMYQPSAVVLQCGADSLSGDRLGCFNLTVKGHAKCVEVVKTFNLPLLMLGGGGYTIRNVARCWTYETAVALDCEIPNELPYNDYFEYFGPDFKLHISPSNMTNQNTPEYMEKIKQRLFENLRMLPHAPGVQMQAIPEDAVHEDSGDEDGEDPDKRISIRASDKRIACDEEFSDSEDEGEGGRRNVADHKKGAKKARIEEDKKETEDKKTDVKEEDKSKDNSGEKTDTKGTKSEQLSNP
Series [9] is described as follows: Intrinsic clearance in mouse liver microsomes in presence of NADPH by LC-MS/MS analysis. The format is ADME, Microsome. The conditions noted are these: read-out: CLH.
Another series has as its target T2, Histone deacetylase 7 (Homo sapiens, UniProt Q8WUI4).
T2 sequence (Q8WUI4 whole entry): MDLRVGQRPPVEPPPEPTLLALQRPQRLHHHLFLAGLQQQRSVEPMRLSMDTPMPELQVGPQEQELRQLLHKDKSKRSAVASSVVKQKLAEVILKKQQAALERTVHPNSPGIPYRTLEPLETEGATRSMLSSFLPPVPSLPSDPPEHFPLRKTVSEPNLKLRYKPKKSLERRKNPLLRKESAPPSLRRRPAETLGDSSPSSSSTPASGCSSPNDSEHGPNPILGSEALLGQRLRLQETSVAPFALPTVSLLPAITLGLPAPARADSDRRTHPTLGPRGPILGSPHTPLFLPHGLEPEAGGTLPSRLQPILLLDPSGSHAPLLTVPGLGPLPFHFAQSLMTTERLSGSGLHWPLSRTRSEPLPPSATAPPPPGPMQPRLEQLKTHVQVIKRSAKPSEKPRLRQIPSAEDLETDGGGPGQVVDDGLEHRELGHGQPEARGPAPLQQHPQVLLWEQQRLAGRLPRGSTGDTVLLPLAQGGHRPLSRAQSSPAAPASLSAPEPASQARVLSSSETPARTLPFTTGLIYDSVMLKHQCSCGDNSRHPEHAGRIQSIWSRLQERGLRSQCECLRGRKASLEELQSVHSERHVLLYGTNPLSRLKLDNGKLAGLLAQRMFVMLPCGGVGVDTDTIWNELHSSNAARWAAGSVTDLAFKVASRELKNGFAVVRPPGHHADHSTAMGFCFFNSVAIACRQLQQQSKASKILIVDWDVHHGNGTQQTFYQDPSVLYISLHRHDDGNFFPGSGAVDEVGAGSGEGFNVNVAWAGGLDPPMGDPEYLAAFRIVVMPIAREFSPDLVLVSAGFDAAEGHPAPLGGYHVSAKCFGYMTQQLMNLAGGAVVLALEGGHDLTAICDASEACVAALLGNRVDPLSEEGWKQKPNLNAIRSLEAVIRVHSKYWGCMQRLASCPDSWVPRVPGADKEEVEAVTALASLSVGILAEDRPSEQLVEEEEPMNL
The experiment in a line: Inhibition of N-terminal GST-tagged human HDAC7 (518 to end residues) expressed in baculovirus-infected Sf9 cells using Boc-Lys(trifluoroacety1)-AMC as substrate preincubated with enzyme for 1 hr followed by substrate addition and measured after 30 mins by fluorescence based analysis.

In series [10] the test system is RPMI-8226. The experiment in a line: Antiproliferative activity against human RPMI-8226 cells assessed as inhibition of cell proliferation incubated for 48 hrs by CCK8 assay. The conditions noted are these: RPMI-8226, 48 h. The format is functional, cell-based.

For `O=C(NO)c1ccc(COc2no[n+]([O-])c2S(=O)(=O)c2ccccc2)cc1`, in the series on RPMI-8226 [1], the TGI (as a rule, the reduction of tumour growth relative to the control group) is 48%. The IC50 (as a rule, the concentration that gives 50% inhibition) is 420 nM with MM1.S; 5300 nM at Histone deacetylase 11; 1500 nM at Histone deacetylase 2; greater than 40000 nM on Histone deacetylase 7; 170 nM with RPMI-8226 [10]. Moreover, the fold change (FC) in series [2] stood at 1.2. For the same compound, the outcome in the series on RPMI-8226 [3], in the series with RPMI-8226 [4], in the series on RPMI-8226 [6] and with RPMI-8226 [8] was Active. Moreover, the Activity with RPMI-8226 [5] is recorded as 28.8%; in series [7], “Non-Toxic”. In addition, in [9], the CLint scaled was found to be 2990 mL/min/kg.
